Measured values as given in paper PMC9401491, “The Novel Nucleoside Analogue ProTide NUC-7738 Overcomes Cancer Resistance Mechanisms In Vitro and in a First-In-Human Phase I Clinical Trial” (Clinical Cancer Research, 2021).
Like-named read-outs stand apart in the source and are kept apart here.

Assays:
[1] = NuTide:701 first-in-human phase I study; format: in vivo; details: human, in vivo
Protocol: A Safety Study of NUC-7738 in Patients with Advanced Solid Tumours or Lymphoma, ClinicalTrials number: NCT03829254. Approved by Oxford C Ethics Committee ref 18/SC/0628.
This study is currently ongoing at three centers in the United Kingdom: Edinburgh, Newcastle, and Oxford. As of June 1, 2021, 28 patients with advanced cancers have been enrolled and received escalating doses of 14–900 mg/m^2 (intravenous infusion from 30–120 minutes) once weekly until dose-limiting toxicity or disease progression occurs. Intrapatient dose escalation ensures those starting at lower dose levels of NUC-7738 are continuously moved to higher doses once safety has been established. The most common cancers to be included are immunotherapy-resistant melanoma (n = 8), colorectal cancer (n = 3), and gastric and lung cancer (n = 2 each). […] A posttreatment biopsy was taken from a patient with melanoma and compared with their archived specimen collected prior to enrolling in the clinical trial. […] Transcriptional profiling of the specimens using RNA-seq identified more than 1,069 genes which were at least 2-fold differentially expressed after treatment with NUC-7738 (Fig. 6C and Supplementary Fig. S6A–C).

[2] = Beagle dog 4-week toxicology and toxicokinetics
[3] = tested on: A498; assay: MTT cell viability, A498; format: cell-based; details: Homo sapiens; A498, 48 hours; mean (±SEM); read-out: IC50
Protocol: (§1) Cells (10^4) were seeded into 96-well plates and then treated with NUC-7738 (lot 5132/E00393/119) or 3′-dA (cordycepin, catalog no. C3394, lot 067M4182, Sigma) for 48 hours. One and a half milligrams per milliliter MTT (catalog no. M6494, Invitrogen) in a 1:1 ratio was added to cell culture media. After a 2-hour incubation at 37°C, media was removed and 70 μl of isopropanol was added. Optical densities at 570 nm were measured using POLARstar Omega plate reader. Readouts were normalized and IC50 values were calculated using a nonlinear regression model in Graphpad prism (v8.3.0). Each biological replicate (at least 3) was performed in 4 technical replicates to calculate the average IC50 value. To measure apoptosis, the Guava NexinReagent (Luminex Corp.) was used following manufacturer's instructions. Fluorescence staining was measured with an automated 96-well Guava easyCyte Flow Cytometer (Luminex Corp.).

[4] = tested on: NUDT2 knockout HAP1 cells; assay: Sensitivity of NUDT2 CRISPR/Cas9 knockout HAP1 cells; format: cell-based, human; details: HAP1 NUDT2 knockout vs wildtype
Protocol: Cells were transfected with stealth siRNA (catalog no. HSS104782, catalog no. HSS104784, catalog no. HSS179235; ThermoFisher) targeting HINT-1 using Lipofectamine RNAiMAX (Invitrogen) following the manufacturer's protocol. At 48 hours posttransfection, cells were treated and cell viability was measured 96 hours posttransfection as described above. Samples for Western blot analysis were harvested 48 hours posttransfection. For gene-depletion experiments, approximately 4 × 10^5 HAP1 cells were seeded per well in a 6-well plate and grown to approximately 50% confluency. After 24 hours, cells were transfected with lentiCRISPR v2 plasmid (GenScript) containing a guide RNA (gRNA) targeting gene of interest using Turbofectin (catalog no. TF81001, OriGene) according to manufacturer's instruction. The following sequences were used: HINT-1 CRISPR gRNA 2 ([…]) and NUDT2 CRISPR gRNA 2 ([…]). At 24 hours posttransfection, positively transfected cells were selected using […] puromycin for 72 hours. After selection, surviving colonies were expanded and used for downstream analysis. For clonal selection, clones were selected using limited dilution and expanded into a 6-well plate for Western blot screening.

[5] = tested on: SK-OV3; assay: MTT cell viability, SK-OV3; format: cell-based; details: Homo sapiens, SK-OV-3; SK-OV3, 48 hours; 2 biological replicates; read-out: IC50
Protocol: as §1

[6] = tested on: Tera-1; assay: MTT cell viability, Tera-1; format: cell-based; details: Tera-1, 48 hours; mean (±SEM); read-out: IC50
Protocol: as §1

[7] = tested on: Gastric or cervical cancer cells; assay: Apoptosis by cleaved PARP Western blot; format: cell-based; details: 50 and 100 μmol/L, 24 hours
Protocol: as §1
Cells were harvested and lyzed using RIPA lysis and extraction buffer (Thermo Scientific) following manufacturer's protocol. Twenty to 30 μg of total protein lysates was loaded on Mini-PROTEAN TGX precast gels (Bio-Rad). Separated proteins were transferred to a polyvinylidene difluoride (PVDF) membrane using Trans-Blot Turbo Transfer System (Bio-Rad) followed by incubation with primary and horseradish peroxidase (HRP)–conjugated secondary antibodies [anti-mouse, catalog no. […]

[8] = tested on: 501MEL; assay: MTT cell viability, 501MEL; format: cell-based; details: 501MEL, 48 hours; mean (±SEM); read-out: IC50
Protocol: as §1

[9] = tested on: HAP1 cells; assay: HAP1 viability with ADA, hENT1 or ADK inhibitors; format: cell-based, human; details: HAP1, EHNA, NBTI, A134974
Protocol: as §1
To assess whether NUC-7738 was resistant to ADA and could bypass ADK and hENT1 (SLC29A1), cell viability was measured after treatment with their specific and corresponding protein inhibitors: erythro-9-(2-Hydroxy-3-nonyl) adenine hydrochloride (EHNA), A134974, and S-(4-nitrobenzyl)-6-thioinosine (NBTI), respectively ([16, 17, 34, 35]).

[10] = tested on: AGS; assay: MTT cell viability, AGS; format: cell-based; details: Homo sapiens, 48 hours, mean (±SEM), read-out: IC50
Protocol: as §1

[11] = tested on: HAP1 cells; assay: MTT cell viability, HAP1 cells; format: cell-based; details: Homo sapiens
Protocol: as §1

[12] = tested on: CAKI-1; assay: MTT cell viability, CAKI-1; format: cell-based; details: Homo sapiens; CAKI-1, 48 hours; mean (±SEM); read-out: IC50
Protocol: as §1

[13] = set-up: method as in PMID 20302371; details: cited from earlier work
[14] = tested on: ACHN; assay: MTT cell viability, ACHN; format: cell-based; details: Homo sapiens, 48 hours, mean (±SEM), read-out: IC50
Protocol: as §1

[15] = tested on: NCI-786; assay: MTT cell viability, NCI-786; format: cell-based; details: NCI-786, 48 hours; mean (±SEM); read-out: IC50
Protocol: as §1

[16] = tested on: cancer cell lines; assay: IC50 across a wide set of cancer cell lines; format: cell-based; details: mean across a wide set of cancer cell lines; read-out: mean IC50
Protocol: as §1

[17] = tested on: UO-31; assay: MTT cell viability, UO-31; format: cell-based; details: Homo sapiens; UO-31, 48 hours; mean (±SEM); read-out: IC50
Protocol: as §1

[18] = all doses, both occasions and genders

For `Nc1ncnc2c1ncn2[C@@H]1O[C@H](COP(=O)(O)OP(=O)(O)OP(=O)(O)O)C[C@H]1O` [3′-dATP, 3′-dA-5′-triphosphate], the intracellular half-life [1] was “approximately 50 h”.
With `O=c1[nH]cnc2c1ncn2[C@@H]1O[C@H](CO)C[C@H]1O` [3′-deoxyinosine] the “mean ratio metabolite/parent, AUC 0-t” value [2, 18] was 1.32, the “mean ratio metabolite/parent, Cmax” value [2, 18] was 0.42 and the Tmax ([2]; both, beagle, plasma, iv) was 15 min.
For `Nc1ncnc2c1ncn2[C@@H]1O[C@H](CO)C[C@H]1O` [3′-dA, 3′-deoxyadenosine, reference compound], the IC50 [3] was 479 µM, the “resistance after NUDT2 deletion” value [4] was “Specific resistance” and the IC50 [5] was 360 µM. The IC50 [6] was 200 µM, the “apoptotic cell death, cleaved PARP-1” value [7] was “induced apoptotic cell death” and the IC50 [8] was 137 µM. The “potency upon inhibition of ADA, hENT1 or ADK” value [9] was “dependent on ADA, hENT1, and ADK”, the IC50 [10] was 460 µM and the IC50 ([11]; HAP1, 48 hours, MTT, mean (±SEM) of 4 biological replicates, read-out: IC50) was 49.9 µM. The IC90 ([11]; HAP1, 48 hours, MTT, mean (±SEM) of 4 biological replicates, read-out: IC90) was 151 µM, the IC50 ([11]; HAP1, as stated in RNA-seq method, read-out: IC50 concentration used for RNA-seq) was 46 µM and the IC90 ([11]; HAP1, as stated in RNA-seq method, read-out: IC90 concentration used for RNA-seq) was 375 µM. For the same molecule, the IC50 [12] was 291 µM, the half-life in plasma [13] was 1.6 min and the IC50 [14] was 393 µM. For the same molecule, the IC50 [15] was 181 µM, the IC50 [16] was 138 µM and the IC50 [17] was 385 µM.
